We go through ten compounds from patent US9273043B2, “TRPV1 antagonists including dihydroxy substituent and uses thereof” (Purdue Pharma L.P., priority 2011, dated 2016).

In series [1] the target is T1, human TRPV1 (Homo sapiens (Human), UniProt Q8NER1). Nature of the series: Capsaicin-based assay, Protocol 2, TRPV1/CHO cells (hCAP-CHO), Fluo-4 FLIPR. The class given is cell-based. To be noted: 100 nM capsaicin, mean ± SEM. The source says:
The TRPV1/CHO cell line was generated as described below. […] The resulting PCR products were purified from agarose gels using Gel Band Purification Kit (GE Healthcare Bioscience) and were subcloned into pCR-Blunt vector (Invitrogen). The cloned cDNA was fully sequenced using a fluorescent dye-terminator reagent (BigDye Terminator ver3.1 Cycle Sequencing Kit, Applied Biosystems) and ABI Prism 3100 genetic analyzer (Applied Biosystems). The pCR-Blunt vector containing the hTRPV1 cDNA was subjected to restriction digestion with EcoR1. The restriction fragment was subcloned into expression vector pcDNA3.1(-) (Invitrogen) and named pcDNA3.1(-)-hVR1 plasmid. The sequence of the cDNA encoding TRPV1 is available at GenBank accession number AJ277028. […] The cells were transfected with the pcDNA3.1(-)-hVR1 plasmid using FuGENE6 (Roche) according to the manufacturer's protocol. 24 hr after transfection, neomycin-resistant cells were selected using 1 mg/mL G418 (Nacalai Tesque). […] The cells expressing hTRPV1 were cultured in the growth medium supplemented with 1 mg/mL G418. […] Capsaicin-based Assay: […] Subsequently, the cells were loaded by incubation in 0.1 mL of wash buffer containing Fluo-4 at 3 μM final concentration. After 1 hour, the cells were washed twice with 0.2 mL wash buffer and resuspended in 0.1 mL wash buffer. The plates were then transferred to a Fluorescence Imaging Plate Reader (Molecular Devices). Fluorescence intensity was monitored for 15 seconds to establish a baseline. […] The final concentration of the compound was adjusted to range from 100 μM to 1.5625 μM. […] Data were collected over the entire time course and analyzed using Excel and the curve-fitting formula GraphPad Prism.

Series [2] addresses T1, human TRPV1. In words: pH-based assay, Protocol 2, TRPV1/CHO cells (hpH-CHO), Fura-2 Ca2+ influx. The series is classed as cell-based. The note with it: pH 5.0-5.1 (H2SO4), mean ± SEM. As to the method: For Protocol 2, a Chinese Hamster Ovary cell line (CHO) that has been engineered to constitutively express human recombinant TRPV1 was used (TRPV1/CHO cells). The TRPV1/CHO cell line was generated as described below.
TRPV1/CHO cells were seeded in the 96-well clear-bottom black-wall plate (Nunc) at densities of 1-2×10^4 cells/well and grown in 100 μL of culture medium (alpha-MEM supplemented with 10% FBS, 20 mM HEPES, 1 mg/mL geneticin and 1% antibiotic-antimycotic mixed stock solution) for 1-2 days before the experiment.
(1) Culture medium was removed using an 8-channel-pipette (Rainin, USA) from the 96-well plate and the wells were refilled with 100 μL of loading buffer (20 mM HEPES, 115 mM NaCl, 5.4 mM KCl, 0.8 mM MgCl2, 1.8 mM CaCl2, 13.8 mM D-glucose, 2.5 mM probenecid, pH 7.4) containing 5 μM Fura-2 AM (Dojin, Japan).
(2) The 96-well plate was incubated at 37° C. for 45 min.
(3) The loading buffer was removed from each well. The cells were subsequently washed twice with 150 μL of measuring buffer (20 mM HEPES, 115 mM NaCl, 5.4 mM KCl, 0.8 mM MgCl2, 5.0 mM CaCl2, 13.8 mM D-glucose, 0.1% BSA, pH 7.4) (no probenecid). The wells were then refilled with 80 μL of measuring buffer.
(4) After an incubation at 4° C. for 15 min, the 96-well plate was transferred to a model FDSS-3000 plate reader apparatus (Hamamatsu Photonics K.K., Japan).
(5) The Fura-2 fluorescent intensity was monitored at a wavelength of 340 nm and at 380 nm, respectively, at a rate of 0.5 Hz for a total of 240 seconds. After 16 time points (32 sec) of baseline detection, 20 μL of agonist solution was added to each well. The final volume was 100 μL/well.
(6) Fluorescence intensity ratio refers to the fluorescence intensity at 340 nm over the fluorescence intensity at 380 nm at a particular time point. The baseline was set as the average of the fluorescent intensity ratios for the first 16 time points before the addition of agonist solution. The maximum response was the highest fluorescent intensity ratio during the 60 time points following addition of agonist solution.
(7) Maximal signal ratios from each well were calculated as output data using the FDSS-3000 analysis program. Data were analyzed using Excel (Microsoft) and XLfit (idbs) software.
In an “agonist plate,” two different agonist solutions with different H2SO4 concentrations were used for the pH assay (see, e.g., FIG. 3A of U.S. Patent Application Publication No. US 2009/0170868 A1). For the first half of a 96-well plate one agonist solution was used; for the second half the other agonist solution was used. The agonist solutions were obtained by diluting sulfuric acid (1M H2SO4) with measuring buffer. The concentrations for the two agonist solutions were determined as described above in Section 2 of Protocol 2.
The sulfuric acid concentrations between the two agonist solutions differed by 0.5 mM. In the experiment described in Section 2 of Protocol 2, the sulfuric acid concentrations in the agonist solutions were determined to be 16 mM and 16.5 mM, respectively. After 1:4 dilution of the agonist solutions, the final sulfuric acid concentration was 3.2 mM and 3.3 mM, respectively. The resulting pH value for the pH assay was 5.0 to 5.1.
Test compounds were dissolved in DMSO to yield 1 mM stock solutions. The stock solutions were further diluted using DMSO in […] serial dilution steps with 6 points (1000, 250, 62.5, 15.625, 3.9062, and 0.977 μM). The thereby-obtained solutions were further diluted in measuring buffer (1:100) as 10× stock serial dilutions with a DMSO concentration of 1%. 10 μL of a 10× stock was added into each well of an “antagonist plate” (see step 3.3.(4) below). Thus, the final concentrations of antagonists was as follows: 0.977, 3.906, 15.63, 62.5, 250, and 1000 nM containing 0.1% DMSO (see, e.g., FIG. 3B of U.S. Patent Application Publication No. US 2009/0170868 A1).
Steps (1) and (2) of this Assay were the same as steps 2.2.(1) and 2.2.(2), respectively, of Protocol 2. […]

Series [3] can be described thus: Aqueous solubility at pH 1.2 and pH 6.8. The series is classed as physicochemical. To be noted: aqueous solution.
Series [4] in a line: In vivo assay of body temperature increase (rectal body temperature). The note with it: rats, oral, 10 mL/kg of 1 mg/mL in 0.5% methylcellulose; greatest ΔTb versus vehicle control at 0.5, 1 or 2 hrs. The arrangement: species or system rat. The source says: Hyperthermia or undesirable elevation in animal body temperature is known to be an undesirable side-effect accompanying the administration of certain TRPV1 antagonists (Gavva, “Body-temperature maintenance as the predominant function of the vanilloid receptor TRPV1,” Trends Pharmacol. Sci. 29(11):550-557 (2008)).
Test Animals: Selection of rats (Crl/SD rats, 7 weeks, male) was based on rectal body temperature measured during the morning of the day of dosing as described below. In addition, to minimize spontaneous, stress-induced increases in body temperature, rats were acclimated in advance to both the rectal measurement procedure and to being handled and dosed. All lodging and testing took place in animal care laboratories with constant room temperature and humidity. The rats were free to move and ingest food and water throughout. Each rat was coded with a colored line on the tail, housed in a separate cage, and permitted the normal range of movement. Immediately before each body temperature measurement, a rat was transferred to a measurement cage. To reduce stress which could influence its body temperature, each rat was covered with towels during the measurement. A thermistor probe was then carefully inserted into the rectum of each rat and left in place until the temperature reading on the digital display had stabilized; this value was recorded.
Assay: On the day before dosing, rectal body temperature was measured at 9:00, 10:00, 11:00, 12:30, 13:30, 14:30, and 15:30 o'clock to familiarize the rats with the measurement procedure prior to administration of the test or control treatments. The rats were also dosed by oral gavage without vehicle at 12:30 o'clock to acclimate and familiarize them with the handling and dosing procedure.
On the day of dosing, only rats with rectal body temperatures within the range of from 37.0° C. to 37.7° C. were selected for study. Rectal body temperatures were measured at 9:00, 10:00, and 11:00 o'clock. Rats were excluded from the study if either their rectal body temperature was over 37.9° C. at 10:00 o'clock or was outside the range of from 37.0° C. to 37.7° C. at 11:00 o'clock. The selected rats were divided into several groups based on their rectal body temperatures at 11:00 o'clock. Rectal body temperatures of the selected rats were measured again at 12:30 o'clock and any rat with a rectal body temperature of 38.0° C. or greater was also excluded from the study.
Following assignment to either a test or control group, a test compound or a control was administered to the rats. Each test compound was dissolved in a vehicle of 0.5% aqueous methylcellulose solution and the final concentration of the test compound was adjusted to 1 mg/mL. Each test compound was orally administered once at a dose of 10 mL/kg. The same volume of the control (vehicle only) was administered once to the control group. Rectal body temperatures were measured at the following time points: 0.5, 1, and 2 hrs after administration.
The body temperature increase (ΔTb) for each test compound was calculated by subtracting, at each time point, the average temperature of the control group from the average temperature of the group administered that test compound. The greatest ΔTb obtained for each test compound at any of the time points is shown in Table 11 below, along with the ΔTb of the control.

Where [5] appears, read: pH 1.2, simulated gastric fluid, read-out: aqueous solubility at pH 1.2.
The mark [6] stands for this setting: pH 6.8, aqueous buffer, read-out: aqueous solubility at pH 6.8.

A word on the IC50: it is the concentration at which inhibition is half-maximal. A low value points to greater potency in that assay. For orientation: solubility means how much of the substance goes into solution per volume.

In brackets after ≈: the same amount, converted by molar mass. Where two headings read alike, the source gives them in different places.

T1 sequence (Q8NER1 whole entry, looked up, the tested form may be a part): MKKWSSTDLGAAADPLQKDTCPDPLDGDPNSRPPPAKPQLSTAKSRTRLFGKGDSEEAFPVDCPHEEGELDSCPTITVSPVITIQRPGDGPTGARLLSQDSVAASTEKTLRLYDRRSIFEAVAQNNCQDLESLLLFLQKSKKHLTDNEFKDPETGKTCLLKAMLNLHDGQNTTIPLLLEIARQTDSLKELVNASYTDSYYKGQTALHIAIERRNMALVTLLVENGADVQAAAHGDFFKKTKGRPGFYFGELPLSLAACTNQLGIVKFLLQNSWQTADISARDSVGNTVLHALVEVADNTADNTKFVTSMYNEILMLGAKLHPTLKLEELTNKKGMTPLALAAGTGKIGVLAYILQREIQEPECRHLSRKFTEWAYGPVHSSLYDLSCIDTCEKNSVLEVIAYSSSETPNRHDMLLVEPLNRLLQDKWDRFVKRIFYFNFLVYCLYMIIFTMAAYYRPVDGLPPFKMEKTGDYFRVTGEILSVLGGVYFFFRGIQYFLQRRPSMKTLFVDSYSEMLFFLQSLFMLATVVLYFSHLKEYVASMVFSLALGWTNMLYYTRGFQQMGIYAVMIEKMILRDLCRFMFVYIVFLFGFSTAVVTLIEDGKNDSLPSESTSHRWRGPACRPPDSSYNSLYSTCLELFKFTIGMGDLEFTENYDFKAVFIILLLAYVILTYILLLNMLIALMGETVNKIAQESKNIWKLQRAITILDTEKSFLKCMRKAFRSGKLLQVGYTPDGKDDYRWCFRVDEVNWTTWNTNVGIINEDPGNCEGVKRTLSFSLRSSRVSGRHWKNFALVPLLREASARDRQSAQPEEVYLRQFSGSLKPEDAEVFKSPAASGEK

Take `C[C@@H]1CN(C(=O)Nc2nc3ccccc3s2)CCN1c1ncc([C@H](O)CO)cc1F` [A122(b), (R)—N-(benzo[d]thiazol-2-yl)-4-(5-((S)-1,2-dihydroxyethyl)-3-fluoropyridin-2-yl)-3-methylpiperazine-1-carboxamide]: the IC50 against human TRPV1 [1] was 444 ± 79 nM; against human TRPV1 [2], 670 ± 94 nM.
For `C[C@H]1CN(C(=O)Nc2nc3ccccc3s2)CCN1c1ncc([C@H](O)CO)cc1F` [A122(c), (S)—N-(benzo[d]thiazol-2-yl)-4-{5-[(S)-1,2-dihydroxyethyl]-3-fluoropyridin-2-yl}-3-methylpiperazine-1-carboxamide] the same measures were 178 ± 29 nM and 553 ± 12 nM.
For `C[C@@H]1CN(c2ncc([C@@H](O)CO)cc2F)CCN1C(=O)Nc1nc2ccc(Cl)cc2s1` [A123(e), (R)—N-(6-chlorobenzo[d]thiazol-2-yl)-4-(5-((R)-1,2-dihydroxyethyl)-3-fluoropyridin-2-yl)-2-methylpiperazine-1-carboxamide] the same measures were 11.5 ± 1.4 nM and 0.4 nM.
For `Cc1ccc2nc(NC(=O)N3CCN(c4ncc([C@@H](O)CO)cc4F)C[C@H]3C)sc2c1` [A126(e), (R)-4-(5-((R)-1,2-dihydroxyethyl)-3-fluoropyridin-2-yl)-2-methyl-N-(6-methylbenzo[d]thiazol-2-yl)piperazine-1-carboxamide] the same measures were 18.2 ± 2.9 nM and 0.4 nM.
Consider `C[C@@H]1CN(C(=O)Nc2nc3cc(F)ccc3s2)CCN1c1ncc([C@H](O)CO)cc1F` [A155(b), (R)-4-{5-[(S)-1,2-dihydroxyethyl]-3-fluoropyridin-2-yl}-N-(5-fluorobenzo[d]thiazol-2-yl)-3-methylpiperazine-1-carboxamide], for which the results for the 50% inhibitory concentration (IC50) on human TRPV1 [1] and on human TRPV1 [2] were 216 ± 57 nM and 134 ± 16 nM, respectively.
Take `C[C@H]1CN(c2ncc([C@@H](O)CO)cc2F)CCN1C(=O)Nc1nc2cc(F)ccc2s1` [A155(d), (S)-4-{5-[(R)-1,2-dihydroxyethyl]-3-fluoropyridin-2-yl}-N-(5-fluorobenzo[d]thiazol-2-yl)-2-methylpiperazine-1-carboxamide]: the figures for the solubility in series [3] (setting [5]) and in series [3] (setting [6]) were > 50 µM and 4 µM (≈ 1.8 µg/mL), respectively. In addition, at human TRPV1 [1], the midpoint of inhibition, the IC50, lay at 168 ± 42 nM. Further, the “ΔTb, body temperature increase” value in series [4] was determined as 0.1 °C.
For `C[C@@H]1CN(c2ncc([C@@H](O)CO)cc2F)CCN1C(=O)Nc1nc2cc(F)ccc2s1` [A155(e), (R)-4-{5-[(R)-1,2-dihydroxyethyl]-3-fluoropyridin-2-yl}-N-(5-fluorobenzo[d]thiazol-2-yl)-2-methylpiperazine-1-carboxamide] the same measures were > 50 µM, 5 µM (≈ 2.25 µg/mL), 16.5 ± 4.2 nM and 0.1 °C.
Turning to `C[C@H](O)[C@@H](O)c1cnc(N2CCN(C(=O)Nc3nc4ccccc4s3)C[C@H]2C)c(F)c1` [B122(j), (R)—N-(benzo[d]thiazol-2-yl)-4-{5-[(1S,2S)-1,2-dihydroxypropyl]-3-fluoropyridin-2-yl}-3-methylpiperazine-1-carboxamide], the half-inhibitory concentration (IC50) at human TRPV1 [1] stood at 586 ± 78 nM; on human TRPV1 [2] it was 1720 nM.
Turning to `C[C@H](O)[C@@H](O)c1cnc(N2CCN(C(=O)Nc3nc4cc(F)ccc4s3)[C@@H](C)C2)c(F)c1` [B155(h), (S)-4-{5-[(1S,2S)-1,2-dihydroxypropyl]-3-fluoropyridin-2-yl}-N-(5-fluorobenzo[d]thiazol-2-yl)-2-methylpiperazine-1-carboxamide], the concentration for half-maximal inhibition (IC50) against human TRPV1 [1] came to 107 ± 20 nM.
On to `O=C(Nc1ccc(C(F)(F)F)c(Cl)c1)N1CC=C(c2ncccc2F)CC1` [Compound 215], for which the solubility is recorded as 9.6 µM (≈ 3.84 µg/mL) in series [3] (pH 1.2, read-out: aqueous solubility at pH 1.2) and 0.6 µM (≈ 0.24 µg/mL) in series [3] (pH 6.8, read-out: aqueous solubility at pH 6.8).
